In ChEMBL document CHEMBL3046556, “Microwave-assisted synthesis and antimicrobial screening of new imidazole derivatives bearing 4-thiazolidinone nucleus” (2013):
Converted amounts (≈) assume the structure as drawn. The source made the active and inactive calls. The calls are words filed in the database; no cut-off is given here.

Key:
Aspergillus clavatus [1] = assay: Antifungal activity against Aspergillus clavatus MTCC 1323 assessed as growth inhibition after 48 hr by broth dilution method; assay type: functional; conditions: MTCC 1323, 48 h
Staphylococcus aureus [2] = assay: Antibacterial activity against Staphylococcus aureus MTCC 96 assessed as growth inhibition at 12.5 to 1000 ug/mL after 24 hr by NCCLS broth dilution method; assay type: functional, organism-based
Pseudomonas aeruginosa [3] = assay: Antibacterial activity against Pseudomonas aeruginosa MTCC 1688 assessed as growth inhibition at 12.5 to 1000 ug/mL after 24 hr by NCCLS broth dilution method; assay type: functional, organism-based
Streptococcus pyogenes [4] = assay: Antibacterial activity against Streptococcus pyogenes MTCC 442 assessed as growth inhibition at 12.5 to 1000 ug/mL after 24 hr by NCCLS broth dilution method; assay type: functional, organism-based
Candida albicans [5] = assay: Antifungal activity against Candida albicans MTCC 227 assessed as growth inhibition at 12.5 to 1000 ug/mL after 48 hr by broth dilution method; assay type: functional, organism-based
Escherichia coli [6] = assay: Antibacterial activity against Escherichia coli MTCC 443 assessed as growth inhibition at 12.5 to 1000 ug/mL after 24 hr by NCCLS broth dilution method; assay type: functional, organism-based
Aspergillus clavatus [7] = assay: Antifungal activity against Aspergillus clavatus MTCC 1323 assessed as growth inhibition at 12.5 to 1000 ug/mL after 48 hr by broth dilution method; assay type: functional, organism-based
Aspergillus niger [8] = assay: Antifungal activity against Aspergillus niger MTCC 282 assessed as growth inhibition after 48 hr by broth dilution method; assay type: functional; conditions: MTCC 282, 48 h
Candida albicans [9] = assay: Antifungal activity against Candida albicans MTCC 227 assessed as growth inhibition after 48 hr by broth dilution method; assay type: functional; conditions: MTCC 227, 48 h
Pseudomonas aeruginosa [10] = assay: Antibacterial activity against Pseudomonas aeruginosa MTCC 1688 assessed as growth inhibition after 24 hr by NCCLS broth dilution method; assay type: functional; conditions: MTCC 1688, 24 h
Staphylococcus aureus [11] = assay: Antibacterial activity against Staphylococcus aureus MTCC 96 assessed as growth inhibition after 24 hr by NCCLS broth dilution method; assay type: functional; conditions: MTCC 96, 24 h
Escherichia coli [12] = assay: Antibacterial activity against Escherichia coli MTCC 443 assessed as growth inhibition after 24 hr by NCCLS broth dilution method; assay type: functional; conditions: MTCC 443, 24 h
Streptococcus pyogenes [13] = assay: Antibacterial activity against Streptococcus pyogenes MTCC 442 assessed as growth inhibition after 24 hr by NCCLS broth dilution method; assay type: functional; conditions: MTCC 442, 24 h
Aspergillus niger [14] = assay: Antifungal activity against Aspergillus niger MTCC 282 assessed as growth inhibition at 12.5 to 1000 ug/mL after 48 hr by broth dilution method; assay type: functional, organism-based

Structure (SMILES) | MIC (Aspergillus clavatus [1]) [µg/mL] | MIC (Aspergillus niger [8]) [µg/mL] | MIC (Candida albicans [9]) [µg/mL] | MIC (Pseudomonas aeruginosa [10]) [µg/mL] | MIC (Staphylococcus aureus [11]) [µg/mL] | MIC (Escherichia coli [12]) [µg/mL] | MIC (Streptococcus pyogenes [13]) [µg/mL] | growth inhibition (GI) (Staphylococcus aureus [2]) | growth inhibition (GI) (Pseudomonas aeruginosa [3]) | growth inhibition (GI) (Streptococcus pyogenes [4]) | growth inhibition (GI) (Candida albicans [5]) | growth inhibition (GI) (Escherichia coli [6]) | growth inhibition (GI) (Aspergillus clavatus [7]) | growth inhibition (GI) (Aspergillus niger [14])
COc1ccccc1/C=C1/N=C(C)N(c2ccc(C(C)=O)cc2)C1=O | 250 (≈ 748 µM) | 250 (≈ 748 µM) |  |  |  |  |  | inactive | inactive | inactive | inactive | inactive | inactive | 
CC1=N/C(=C\c2ccccc2C)C(=O)N1c1ccc(/C(C)=N/N=C2/NC(=O)CS2)cc1 | 250 (≈ 579 µM) | 100 (≈ 232 µM) | 500 (≈ 1160 µM) | 250 (≈ 579 µM) | 25 (≈ 57.9 µM) | 250 (≈ 579 µM) | 25 (≈ 57.9 µM) |  |  |  |  |  |  | 
CC(=O)c1ccc(N2C(=O)/C(=C\c3ccc(C)cc3)N=C2C)cc1 | 250 (≈ 785 µM) | 250 (≈ 785 µM) |  |  | 1000 (≈ 3140 µM) | 1000 (≈ 3140 µM) |  |  | inactive | inactive | inactive |  | inactive | 
COc1ccc(/C=C2\N=C(C)N(c3ccc(/C(C)=N/N=C4/NC(=O)CS4)cc3)C2=O)cc1 | 250 (≈ 559 µM) | 250 (≈ 559 µM) | 500 (≈ 1120 µM) | 100 (≈ 223 µM) | 500 (≈ 1120 µM) | 250 (≈ 559 µM) | 50 (≈ 112 µM) |  |  |  |  |  |  | 
CC1=N/C(=C\c2ccccc2F)C(=O)N1c1ccc(/C(C)=N/N=C2/NC(=O)CS2)cc1 | 500 (≈ 1150 µM) | 500 (≈ 1150 µM) | 1000 (≈ 2300 µM) | 500 (≈ 1150 µM) | 500 (≈ 1150 µM) | 250 (≈ 574 µM) | 100 (≈ 230 µM) |  |  |  |  |  |  | 
CC1=N/C(=C\c2ccc([N+](=O)[O-])cc2)C(=O)N1c1ccc(/C(C)=N/N=C2/NC(=O)CS2)cc1 | 100 (≈ 216 µM) | 250 (≈ 541 µM) | 500 (≈ 1080 µM) | 100 (≈ 216 µM) | 250 (≈ 541 µM) | 500 (≈ 1080 µM) | 250 (≈ 541 µM) |  |  |  |  |  |  | 
CC1=N/C(=C\c2ccc(F)cc2)C(=O)N1c1ccc(/C(C)=N/N=C2/NC(=O)CS2)cc1 | 500 (≈ 1150 µM) | 500 (≈ 1150 µM) | 500 (≈ 1150 µM) | 250 (≈ 574 µM) | 100 (≈ 230 µM) | 250 (≈ 574 µM) | 500 (≈ 1150 µM) |  |  |  |  |  |  | 
CC1=N/C(=C\c2ccc(Cl)cc2)C(=O)N1c1ccc(/C(C)=N/N=C2/NC(=O)CS2)cc1 | 250 (≈ 553 µM) | 500 (≈ 1110 µM) | 500 (≈ 1110 µM) | 250 (≈ 553 µM) | 250 (≈ 553 µM) | 1000 (≈ 2210 µM) | 100 (≈ 221 µM) |  |  |  |  |  |  | 
CC(=O)c1ccc(N2C(=O)/C(=C\c3ccc(O)cc3)N=C2C)cc1 | 1000 (≈ 3120 µM) |  | 1000 (≈ 3120 µM) |  | 1000 (≈ 3120 µM) | 1000 (≈ 3120 µM) |  |  | inactive | inactive |  |  |  | inactive
CC1=N/C(=C\c2ccccc2Cl)C(=O)N1c1ccc(/C(C)=N/N=C2/NC(=O)CS2)cc1 | 1000 (≈ 2210 µM) | 1000 (≈ 2210 µM) | 1000 (≈ 2210 µM) | 100 (≈ 221 µM) | 500 (≈ 1110 µM) | 500 (≈ 1110 µM) | 250 (≈ 553 µM) |  |  |  |  |  |  | 
COC1=CC(=O)C[C@@H](C)[C@]12Oc1c(Cl)c(OC)cc(OC)c1C2=O [GRISEOFULVIN] | 100 (≈ 283 µM) | 100 (≈ 283 µM) | 500 (≈ 1420 µM) |  |  |  |  |  |  |  |  |  |  | 
COc1ccccc1/C=C1\N=C(C)N(c2ccc(/C(C)=N/N=C3/NC(=O)CS3)cc2)C1=O | 25 (≈ 55.9 µM) | 100 (≈ 223 µM) | 500 (≈ 1120 µM) | 50 (≈ 112 µM) | 50 (≈ 112 µM) | 250 (≈ 559 µM) | 100 (≈ 223 µM) |  |  |  |  |  |  | 
CC(=O)c1ccc(N2C(=O)/C(=C\c3ccccc3O)N=C2C)cc1 | 1000 (≈ 3120 µM) |  | 1000 (≈ 3120 µM) |  |  |  |  | inactive | inactive | inactive |  | inactive |  | 
CC1=N/C(=C\c2ccccc2[N+](=O)[O-])C(=O)N1c1ccc(/C(C)=N/N=C2/NC(=O)CS2)cc1 | 500 (≈ 1080 µM) | 500 (≈ 1080 µM) | 500 (≈ 1080 µM) | 500 (≈ 1080 µM) | 250 (≈ 541 µM) | 100 (≈ 216 µM) | 100 (≈ 216 µM) |  |  |  |  |  |  | 

Further lines, with some results ahead:

MIC (Aspergillus clavatus [1]) [µg/mL] | MIC (Aspergillus niger [8]) [µg/mL] | MIC (Candida albicans [9]) [µg/mL] | MIC (Pseudomonas aeruginosa [10]) [µg/mL] | MIC (Staphylococcus aureus [11]) [µg/mL] | MIC (Escherichia coli [12]) [µg/mL] | MIC (Streptococcus pyogenes [13]) [µg/mL] | Structure (SMILES) | growth inhibition (GI) (Staphylococcus aureus [2]) | growth inhibition (GI) (Pseudomonas aeruginosa [3]) | growth inhibition (GI) (Streptococcus pyogenes [4]) | growth inhibition (GI) (Candida albicans [5]) | growth inhibition (GI) (Escherichia coli [6]) | growth inhibition (GI) (Aspergillus clavatus [7]) | growth inhibition (GI) (Aspergillus niger [14])
100 (≈ 231 µM) | 50 (≈ 115 µM) | 50 (≈ 115 µM) | 100 (≈ 231 µM) | 50 (≈ 115 µM) | 50 (≈ 115 µM) | 50 (≈ 115 µM) | CC1=N/C(=C\c2ccc(O)cc2)C(=O)N1c1ccc(/C(C)=N/N=C2/NC(=O)CS2)cc1 |  |  |  |  |  |  | 
500 (≈ 1200 µM) | 500 (≈ 1200 µM) | 1000 (≈ 2400 µM) | 500 (≈ 1200 µM) | 250 (≈ 599 µM) | 1000 (≈ 2400 µM) | 1000 (≈ 2400 µM) | CC1=N/C(=C\c2ccccc2)C(=O)N1c1ccc(/C(C)=N/N=C2/NC(=O)CS2)cc1 |  |  |  |  |  |  | 
250 (≈ 577 µM) | 250 (≈ 577 µM) | 500 (≈ 1150 µM) | 250 (≈ 577 µM) | 100 (≈ 231 µM) | 250 (≈ 577 µM) | 250 (≈ 577 µM) | CC1=N/C(=C\c2cccc(O)c2)C(=O)N1c1ccc(/C(C)=N/N=C2/NC(=O)CS2)cc1 |  |  |  |  |  |  | 
100 (≈ 231 µM) | 50 (≈ 115 µM) | 100 (≈ 231 µM) | 25 (≈ 57.7 µM) | 250 (≈ 577 µM) | 100 (≈ 231 µM) | 100 (≈ 231 µM) | CC1=N/C(=C\c2ccccc2O)C(=O)N1c1ccc(/C(C)=N/N=C2/NC(=O)CS2)cc1 |  |  |  |  |  |  | 
50 (≈ 116 µM) | 12.5 (≈ 29 µM) | 250 (≈ 579 µM) | 250 (≈ 579 µM) | 12.5 (≈ 29 µM) | 50 (≈ 116 µM) | 25 (≈ 57.9 µM) | CC1=N/C(=C\c2ccc(C)cc2)C(=O)N1c1ccc(/C(C)=N/N=C2/NC(=O)CS2)cc1 |  |  |  |  |  |  | 
100 (≈ 232 µM) | 250 (≈ 579 µM) | 500 (≈ 1160 µM) | 250 (≈ 579 µM) | 100 (≈ 232 µM) | 500 (≈ 1160 µM) | 100 (≈ 232 µM) | CC1=N/C(=C\c2cccc(C)c2)C(=O)N1c1ccc(/C(C)=N/N=C2/NC(=O)CS2)cc1 |  |  |  |  |  |  | 
